Data reported in ChEMBL document CHEMBL6177953, “Discovery of a novel quinoxaline derivative modulator via a dual P53/TLR2 targeting strategy for the alleviation of radiation damage” (Eur J Med Chem, 2025).
The source made the active and inactive calls. No cut-off for these calls is given here.

Experiments:
AHH-1 [1] = experiment: Cytotoxicity against human AHH-1 cells incubated for 24 to 96 hrs by CCK-8 assay; assay type: functional, cell-based
AHH-1 [2] = experiment: Antiradiation activity in human AHH-1 cells assessed as increase in cell viability at 2.5 to 10 micromol/L pre-treated with compound for 24 hrs followed by irradiation at 4 Gy measured after 24 hrs by CCK-8 assay; assay type: functional, cell-based; settings: dose 2.5-10 µmol/L, time 48.0 hrs
AHH-1 [3] = experiment: Antiradiation activity in human AHH-1 cells assessed as increase in cell viability at 2.5 to 10 micromol/L pre-treated with compound for 24 hrs followed by irradiation at 8 Gy measured after 24 hrs by CCK-8 assay; assay type: functional, cell-based; settings: dose 2.5-10 µmol/L, time 48.0 hrs
AHH-1 [4] = experiment: Antiradiation activity in human AHH-1 cells assessed as increase in cell viability at 2.5 to 10 micromol/L pre-treated with compound for 24 hrs followed by irradiation at 6 Gy measured after 24 hrs by CCK-8 assay; assay type: functional, cell-based; settings: dose 2.5-10 µmol/L, time 48.0 hrs
Mus musculus [5] = experiment: Radioprotective activity in male C57BL/6J mouse assessed as survival rate at 100 mg/kg, ip pre-treated with compound for 24.25 hrs followed by irradiation at 8.5 Gy and measured for 30 days post irradiation relative to control; assay type: functional; settings: time 744.25 hrs
[6] = Cytotoxicity against HUVEC incubated for 24 to 96 hrs by CCK-8 assay; assay type: toxicity, cell-based; settings: human, HUVEC cells
Mus musculus [7] = experiment: Radioprotective activity in male C57BL/6J mouse assessed as increase in body weight at 100 to 300 mg/kg, ip pre-treated with compound for 24.25 hrs followed by irradiation at 8.5 Gy and measured on day 18 post irradiation; assay type: functional, organism-based; settings: dose 100-300 mg/kg, time 456.25 hrs
HUVEC [8] = experiment: Antiradiation activity in human HUVEC assessed as cell viability at 5 to 20 micromol/L pre-treated with compound for 24 hrs followed by irradiation at 6 Gy measured after 96 hrs by CCK-8 assay; assay type: functional, cell-based; settings: dose 5-20 µmol/L, time 120.0 hrs
Mus musculus [9] = experiment: Radioprotective activity in male C57BL/6J mouse assessed as survival rate at 250 mg/kg, ip pre-treated with compound for 24.25 hrs followed by irradiation at 8.5 Gy and measured for 30 days post irradiation relative to control; assay type: functional; settings: time 744.25 hrs
HUVEC [10] = experiment: Antiradiation activity in human HUVEC assessed as cell viability at 5 to 20 micromol/L pre-treated with compound for 24 hrs followed by irradiation at 8 Gy measured after 96 hrs by CCK-8 assay; assay type: functional, cell-based; settings: dose 5-20 µmol/L, time 120.0 hrs
AHH-1 [11] = experiment: Induction of apoptosis in human AHH-1 cells assessed as early apoptotic cells pre-treated with compound for 24 hrs followed by irradiation at 6 Gy and measured after 24 hrs by Annexin V-FITC/PI staining based Flow cytometry analysis (reference value: 8.15%); assay type: functional; settings: time 48 hrs
AHH-1 [12] = experiment: Induction of apoptosis in human AHH-1 cells assessed as necrotic cells pre-treated with compound for 24 hrs followed by irradiation at 6 Gy and measured after 24 hrs by Annexin V-FITC/PI staining based Flow cytometry analysis (reference value: 5.37%); assay type: functional; settings: time 48 hrs
AHH-1 [13] = experiment: Induction of apoptosis in human AHH-1 cells assessed as viable cells pre-treated with compound for 24 hrs followed by irradiation at 6 Gy and measured after 24 hrs by Annexin V-FITC/PI staining based Flow cytometry analysis (reference value: 83.6%); assay type: functional; settings: time 48 hrs
Mus musculus [14] = experiment: Radioprotective activity in male C57BL/6J mouse assessed as survival rate at 300 mg/kg, ip pre-treated with compound for 24.25 hrs followed by irradiation at 8.5 Gy and measured for 30 days post irradiation relative to control; assay type: functional; settings: time 744.25 hrs
Mus musculus [15] = experiment: Radioprotective activity in male C57BL/6J mouse assessed as increase in cell growth at 250 to 300 mg/kg, ip pre-treated with compound for 24.25 hrs followed by irradiation at 6.5 Gy and measured on 30 day post irradiation; assay type: functional, organism-based; settings: dose 250-300 mg/kg, time 744.25 hrs
AHH-1 [16] = experiment: Induction of apoptosis in human AHH-1 cells assessed as late apoptotic cells pre-treated with compound for 24 hrs followed by irradiation at 6 Gy and measured after 24 hrs by Annexin V-FITC/PI staining based Flow cytometry analysis (reference value: 2.65%); assay type: functional; settings: time 48 hrs

SMILES | IC50 (AHH-1 [1]) | Activity (AHH-1 [2]) | Activity (AHH-1 [3]) | Activity (AHH-1 [4]) | further results
O=S(=O)(Cc1ccc(Cl)cc1)c1cnc2cc(Br)ccc2n1 | > 60 µM |  |  |  | 
O=C(O)c1ccc(CSc2cnc3ccccc3n2)cc1 | > 60 µM | Active | Active | Active | 
O=C(O)c1ccc(CS(=O)(=O)c2cnc3cc(Cl)ccc3n2)cc1 | 22.4 µM | Active | Active | Active | Activity (Mus musculus [5]): 50%; IC50 [6]: > 60 µM; Activity (Mus musculus [7]): Active
COc1ccc(CSc2cnc3cc(Cl)ccc3n2)cc1 | > 60 µM | Active | Active | Active | 
O=S(=O)(Cc1ccc(F)cc1)c1cnc2cc(Cl)ccc2n1 | 6.32 µM | Active | Active | Active | 
Clc1ccc2nc(SCc3ccc(Br)cc3)cnc2c1 | > 60 µM |  |  |  | 
O=C(O)c1ccc(CSc2cnc3cc(Br)ccc3n2)cc1 | > 60 µM | Active | Active | Active | 
Clc1ccc(CSc2cnc3ccccc3n2)cc1 | 16.6 µM | Active | Active | Active | 
[O-][S+](Cc1ccc(F)cc1)c1cnc2cc(Cl)ccc2n1 (stereo not drawn) | 5.23 µM |  |  |  | 
Brc1ccc(CSc2cnc3ccccc3n2)cc1 | 8.9 µM | Active | Active | Active | 
[O-][S+](Cc1ccc(Br)cc1)c1cnc2cc(Cl)ccc2n1 (stereo not drawn) | 12.9 µM |  |  |  | 
Cc1ccc(CS(=O)(=O)c2cnc3ccccc3n2)cc1 | 36.5 µM | Active | Active | Active | Activity (HUVEC [8]): Active; Activity (Mus musculus [9]): 80%; Activity (HUVEC [10]): Active; IC50 [6]: 56.1 µM; Activity (Mus musculus [7]): Active
O=C(O)c1ccc(CSc2cnc3cc(Cl)ccc3n2)cc1 | > 60 µM | Active | Active | Active | 
Cc1ccc(C[S+]([O-])c2cnc3cc(Cl)ccc3n2)cc1 (stereo not drawn) | 13 µM |  |  |  | 
N#Cc1ccc(CSc2cnc3cc(Cl)ccc3n2)cc1 | > 60 µM | Active | Active | Active | 
Fc1ccc(CSc2cnc3cc(Cl)ccc3n2)cc1 | > 60 µM |  |  |  | 
[O-][S+](Cc1ccc(F)cc1)c1cnc2cc(Br)ccc2n1 (stereo not drawn) | > 60 µM |  |  |  | 
Fc1ccc(CSc2cnc3cc(Br)ccc3n2)cc1 | 22.2 µM | Active | Active | Active | 
[O-][S+](Cc1ccccc1)c1cnc2cc(Cl)ccc2n1 (stereo not drawn) | 6.28 µM |  |  |  | 
[O-][S+](Cc1ccc(F)cc1)c1cnc2ccccc2n1 (stereo not drawn) | > 60 µM | Active | Active | Active | 
N#Cc1ccc(CSc2cnc3ccccc3n2)cc1 | 17.3 µM | Active | Active | Active | 
O=S(=O)(Cc1ccc(Cl)cc1)c1cnc2ccccc2n1 | 5.56 µM |  |  |  | 
O=S(=O)(Cc1ccc(F)cc1)c1cnc2ccccc2n1 | > 60 µM |  |  |  | 
O=S(=O)(Cc1ccccc1)c1cnc2cc(Cl)ccc2n1 | 6.27 µM |  |  |  | 

SMILES | IC50 (AHH-1 [1]) | Activity (AHH-1 [2]) | Activity (AHH-1 [3]) | Activity (AHH-1 [4]) | further results
Cc1ccc(CSc2cnc3cc(Br)ccc3n2)cc1 | 11.3 µM |  |  |  | 
O=C([O-])c1ccc(/C=C/S(=O)(=O)Cc2ccc(Cl)cc2)cc1.[Na+] [RECILISIB SODIUM] | 39.6 µM | Active | Active | Active | Activity (AHH-1 [11]): 19.2%; Activity (AHH-1 [12]): 5.5%; IC50 [6]: > 60 µM; Activity (Mus musculus [7]): Active; Activity (AHH-1 [13]): 66.6%; Activity (Mus musculus [14]): 20%; Activity (Mus musculus [15]): Active; Activity (AHH-1 [16]): 8.65%
[O-][S+](Cc1ccc(Cl)cc1)c1cnc2cc(Cl)ccc2n1 (stereo not drawn) | 11.2 µM |  |  |  | 
N#Cc1ccc(CS(=O)(=O)c2cnc3cc(Cl)ccc3n2)cc1 | 4.8 µM | Active | Active | Active | 
Cc1ccc(CS(=O)(=O)c2cnc3cc(Cl)ccc3n2)cc1 | 27.7 µM |  |  |  | 
Clc1ccc(CSc2cnc3cc(Cl)ccc3n2)cc1 | 53.8 µM | Active | Active | Active | 
Fc1ccc(CSc2cnc3ccccc3n2)cc1 | 58.8 µM | Active | Active | Active | 
COc1ccc(CSc2cnc3cc(Br)ccc3n2)cc1 | 39.5 µM | Active | Active | Active | 
Cc1ccc(CSc2cnc3cc(Cl)ccc3n2)cc1 | > 60 µM | Active | Active | Active | 
Brc1ccc(CSc2cnc3cc(Br)ccc3n2)cc1 | 4.58 µM |  |  |  | 
O=S(=O)(Cc1ccc(F)cc1)c1cnc2cc(Br)ccc2n1 | > 60 µM |  |  |  | 
N#Cc1ccc(C[S+]([O-])c2cnc3cc(Cl)ccc3n2)cc1 (stereo not drawn) | 4.59 µM |  |  |  | 
O=C(O)c1ccc(CS(=O)(=O)c2cnc3ccccc3n2)cc1 | > 60 µM | Active | Active | Active | 
Cc1ccc(CS(=O)(=O)c2cnc3cc(Br)ccc3n2)cc1 | > 60 µM |  |  |  | 
[O-][S+](Cc1ccc(Br)cc1)c1cnc2ccccc2n1 (stereo not drawn) | > 60 µM |  |  |  | 
O=S(=O)(Cc1ccc(Br)cc1)c1cnc2ccccc2n1 | > 60 µM | Active | Active | Active | 
COc1ccc(CSc2cnc3ccccc3n2)cc1 | > 60 µM | Active | Active | Active | 
Clc1ccc2nc(SCc3ccccc3)cnc2c1 | > 60 µM | Active | Active | Active | 
Clc1ccc(CSc2cnc3cc(Br)ccc3n2)cc1 | 3.03 µM |  |  |  | 
O=S(=O)(Cc1ccc(Br)cc1)c1cnc2cc(Cl)ccc2n1 | 15.5 µM | Active | Active | Active | 
O=S(=O)(Cc1ccc(Br)cc1)c1cnc2cc(Br)ccc2n1 | 21.7 µM |  |  |  | 
Cc1ccc(CSc2cnc3ccccc3n2)cc1 | > 60 µM | Active | Active | Active | 
O=S(=O)(Cc1ccc(Cl)cc1)c1cnc2cc(Cl)ccc2n1 | 18.6 µM |  |  |  | 
